Source: PubChem BioAssay (NCI)
“And” between values parts separate entries of the source, which are not always exact repeats. Equal values may be shown once.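 Protocol summary: plate cells (96-well), add compound at 5 concentrations, incubate 48 h, interpolate endpoints linearly. GI50 marks 50% less growth. TGI: concentration producing complete growth inhibition.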

Key:
Assay in all cases: DTP human tumour cell line panel, 48 h
[1] = tested on: ACHN renal
[2] = tested on: CAKI-1 renal
[3] = tested on: DU-145 prostate
[4] = tested on: HOP-62 NSCLC
[5] = tested on: M14 melanoma
[6] = tested on: MDA-MB-231 breast
[7] = tested on: NCI-H23 lung
[8] = tested on: NCI-H522 lung
[9] = tested on: RPMI-8226 leukemia
[10] = tested on: TK-10 renal

| SMILES | GI50 [1] | TGI [1] [µM] | GI50 [2] [µM] | TGI [2] [µM] | GI50 [3] | TGI [3] [µM] | GI50 [4] | TGI [4] [µM] | GI50 [5] | TGI [5] | GI50 [6] | TGI [6] [µM] | GI50 [7] | TGI [7] [µM] | GI50 [8] [µM] | TGI [8] [µM] | GI50 [9] | TGI [9] [µM] | TGI [10] [µM] | GI50 [10] [µM] |
| --- | --- | --- | --- | --- | --- | --- | --- | --- | --- | --- | --- | --- | --- | --- | --- | --- | --- | --- | --- | --- |
| COc1ncc(-c2ccc3nccc(C#CCN4CCN(S(C)(=O)=O)CC4)c3c2)cc1NS(=O)(=O)c1ccc(F)cc1F | 0.05 µM | 3.39 | 0.173 | 13.4 | 0.108 µM | 12.6 | < 0.0159 µM | 5.56 | 0.0855 µM | 2.38 µM | 0.367 µM | 17.2 | 0.287 µM | 5.9 | 0.154 | 1.77 | 0.256 µM | 1.83 |  |  |
| CC1(C)OC2C(CO)OC(n3ccc(N)nc3=O)C2O1 (stereo unspecified) |  | > 100 |  | > 100 |  | > 100 |  | > 100 |  | > 100 µM |  | > 100 |  | > 100 |  | > 100 |  | > 100 | > 100 |  |
| CCOC(=O)[C@@H](C)C[C@H](Cc1ccccc1)NC(=O)c1csc([C@@H](C[C@H](C(C)C)N(C)C(=O)[C@@H](NC(=O)[C@H]2C[C@H](O)CCN2C)C(C)C)OC(C)=O)n1 | 0.106 µM | > 16.7 | 0.0682 | > 16.7 | 0.00421 µM |  | 0.0146 µM | > 16.7 |  |  | 0.00565 µM | 3.24 | 0.00763 µM | > 16.7 | < 0.00167 | 0.0367 | < 0.00167 µM | > 16.7 | > 16.7 | 0.426 |
| Cc1ccc(NC(=O)c2nc(S(C)(=O)=O)oc2-c2ccc(F)cc2)cc1Nc1ccc2ncn(C)c(=O)c2c1 | 1.62 µM | 2.97 |  |  | 1.72 µM | 3.09 | 2.49 µM | 7.11 | 1.75 µM | 3.72 µM | 1.64 µM | 3.15 | 2.79 µM | 9.19 |  |  |  |  | 3.25 | 1.83 |
| CN(CSc1ccc(Cl)cc1)c1ccc(CSc2ccc(Cl)cc2)cc1 | 6.28 µM | 22.3 | 2.32 | 8.64 | 6.69 µM | 25.3 | 13.6 µM | 29.9 | 4.09 µM | 14.9 µM | 1.8 µM | 5.9 | 4.24 µM | 19.5 | 1.19 | 6.88 | 2.11 µM | > 100 | 31.7 | 11.5 |
| FC(F)(F)c1ccc(-c2ncc(-c3ccc(C(F)(F)F)cc3)c(NCc3cc(C(F)(F)F)cc(C(F)(F)F)c3)n2)cc1 | 3.91 µM | > 100 | 3.36 | 28 | 5.25 µM | > 100 | 5.16 µM | > 100 | 4.38 µM | > 100 µM | 3.81 µM | 14.8 | 3.24 µM | 23.8 | 3.29 | 22.6 | 4.24 µM | 35.3 | > 100 | 7.51 |
| CCOc1cc(/C=C/C(=O)C(C(=O)/C=C/c2ccc(OC(=O)CNc3nnc(C)s3)c(OCC)c2)C(=O)CNc2nnc(C)s2)ccc1OC(=O)CNc1nnc(C)s1 | 1.77 µM | 3.42 | 2.8 | > 29 | 1.72 µM | 4.18 | 3.52 µM | 11.8 | 2.4 µM | 10 µM | 1.99 µM | 6.15 | 1.97 µM | 5.58 | 2.03 | 5.71 | 0.34 µM | > 100 | 14.4 | 3.49 |
| COC(=O)[C@@H](C)C[C@H](Cc1ccccc1)NC(=O)c1csc([C@@H](C[C@H](C(C)C)N(C)C(=O)C2(NC(=O)[C@H]3CCCCN3C)CCC2)OC(C)=O)n1 | 0.0249 µM and 0.0193 µM | > 25 |  |  | 0.00351 µM and 0.0025 µM | > 25 | 0.0367 µM and 0.00706 µM | > 25 | 0.00413 µM and 0.0025 µM | 0.0564 µM and 0.0107 µM | 0.00584 µM and 0.0025 µM | 0.152 | 0.00779 µM and 0.00892 µM | > 25 | 0.00165 |  | 0.00259 µM and 0.0025 µM | > 25 | > 25 |  |
| CC(C)OCc1cc(CN2CCN(c3cccc(Cl)c3)CC2)c(O)c2ncccc12 | 0.332 µM | 12.4 | 0.223 | 11 | 0.876 µM | 14.7 | 0.431 µM | 6.54 |  |  | 0.611 µM | 14.2 | 1.03 µM | 19 | 0.3 | 2.26 | 0.558 µM | 13.3 | 21 | 0.837 |
| N#Cc1c2ccccc2c2nnc3ccccc3n12 | 19.3 µM | 61.2 | 34.8 | > 100 | 26.8 µM | > 100 | 24.4 µM | 60.1 | 14.9 µM | 62.4 µM |  |  |  |  |  |  | > 100 µM | > 100 | > 100 | 31.7 |
| Cc1cc(C(O)(c2ccc(Nc3ccccc3)cc2)c2ccc(Nc3ccc(S(=O)(=O)O)cc3)cc2)ccc1N (stereo unspecified) | 1.29 µM | 2.7 | 2.24 | 9.14 | 1.32 µM | 2.67 | 2.27 µM | 4.65 | 1.2 µM | 2.98 µM |  |  | 1.69 µM | 3.56 | 1.26 | 4.44 | 0.571 µM | 2.99 | 3.77 | 1.7 |
| CCC(C)CC(C)C(=O)c1c(O)ccn(O)c1=O (stereo unspecified) | 0.775 µM | > 100 |  |  | 2.1 µM | > 100 | 1.98 µM | > 100 | 1.61 µM | 15 µM | 1.04 µM | > 100 | 1.98 µM | > 100 | 2.46 | > 100 | 0.901 µM | 36.8 | > 100 | 17.8 |
| Cn1c(NCC(CN2CCCC2)OC(=O)c2ccccc2)cc(=O)n(C)c1=O (stereo unspecified) | > 100 µM | > 100 | > 100 | > 100 | > 100 µM | > 100 | > 100 µM | > 100 |  |  | > 100 µM | > 100 | > 100 µM | > 100 | > 100 | > 100 | > 100 µM | > 100 | > 100 | > 100 |
